Reference: paper PMC11039317, “Acidity of persulfides and its modulation by the protein environments in sulfide quinone oxidoreductase and thiosulfate sulfurtransferase” (The Journal of Biological Chemistry, 2024)
Several values for one entry are separate records, joined by “and”; a condition that tells them apart may be missing. Equal entries are not always repeated. Where two headings read alike, the source gives them in different places. Marks after values point to notes of the source that are not given here.

Legend:
Human SQOR [1] = target: T1, Human SQOR (Homo sapiens, UniProt Q9Y6N5); details: cited from earlier work
T1 construct: made in house

[2] = pKa and nucleophilicity of LMW persulfides by pH-dependence of reaction rates with mBrB (stopped-flow fluorescence); details: for pKa, Persulfide / kind with mBrB, Persulfide: I = 0.15, 25 °C, this work; for ΔpKa: analog thiol pKa minus persulfide pKa; for kind with mBrB, Persulfide: pH-independent rate constant
Human TST = Human TST (Homo sapiens, UniProt Q16762); details: cited from earlier work
[3] = cited from earlier work
[4] = cited from earlier work; for kind with mBrB, Analog thiol: pH-independent rate constant of analog thiol
Cys248 [5] = target: T2, Cys248 (UniProt position 248, PLIATCRKGVT); details: cited from earlier work
Human SQOR [6] = target: T1, Human SQOR; format: biochemical; details: neutral pH
Description: The acidity of the persulfidated SQOR was evaluated by the pH-dependence of the steady-state rates. For enzymes that catalyze reactions with one substrate, the kinetic parameter kcat/Km (specificity constant) is an apparent second-order rate constant that reports on the properties of the free enzyme and the free substrate ([32]). kcat/Km can be calculated from the kinetic parameters kcat and Km obtained from typical Michaelis–Menten analysis (Equation 1). […]
SQOR uses three substrates: H2S, a sulfur acceptor (Acc^−), and CoQ (Fig. 1A). At saturating concentrations of H2S and CoQ, the kcat/Km^Acc- represents the apparent rate constant for the reaction between the sulfur acceptor and the Cys379SSH of the bis-persulfidated SQOR, and its pH-dependency reports on the pKa of both free species. Although the pH dependence of human SQOR activity has been reported ([25]), the pH dependence of kcat/Km is unavailable. The steady-state rate of SQOR was determined by monitoring the reduction of coenzyme Q1 (CoQ1) at 278 nm at varying pH at 25 °C. […]. Therefore, in the experiments with cyanide, the reactions were started with cyanide instead of SQOR so that the contribution of SQOR with H2S alone could be subtracted.
In experiments with sulfite, steady-state time courses with varying concentrations of sulfite (0.01–8 mM) were recorded, and linear functions were fitted to the first 15 to 40 s following SQOR addition (Fig. 3A). The slope before SQOR addition was subtracted to correct for the background nonenzymatic reduction of CoQ1, which was minimal. From the hyperbolic fit of the activity versus sulfite concentration plot (Fig. 3B), the kinetic parameters kcat^sulfite and Km^sulfite were obtained, and the kcat/Km^sulfite for each pH were calculated. As expected, when the kcat/Km^sulfite were plotted against pH, a bell-shaped profile was obtained (Fig. 3C), consistent with a reaction between a deprotonated species and a protonated one. An equation with two pKa was fitted to the data (Equation 3), assuming that deprotonated sulfite and protonated SQOR persulfide were the reacting species. […]. […]
The steady-state rates were obtained from linear fits to the data during the first 4 to 20 s following cyanide addition, and the slopes before cyanide addition were subtracted. The kcat/Km^cyanide at each pH was calculated according to Equation 2 using the enzyme (50 nM) and cyanide (90 μM) initial concentrations. […]
Human SQOR was expressed and purified as reported previously ([24], [25]). SQOR concentration was determined from the FAD absorbance at 450 nm, using ε = 11,500 M^−1 cm^−1 ([25]). […]
The activity of SQOR was measured at different pHs in a temperature-controlled spectrophotometer (Shimadzu UV-2600 or UV-1900i). […]

Cys = details: cited from earlier work
Cys248 [7] = target: T2, Cys248; test: kinetics; details: 25 °C; I = 0.15 M (120 mM NaCl); acetic/MES/Tris (15 mM acetic acid, 15 mM MES, 30 mM Tris, 120 mM NaCl, 0.1 mM DTPA); TST thiol (sulfur-free) form reacting with thiosulfate, pseudo-first order
TST thiol = TST thiol (Homo sapiens, UniProt Q16762)
Description: The pH-dependency of the reaction rates of TST persulfide with sulfur acceptors and of TST thiol with thiosulfate were studied by following changes in the intrinsic fluorescence (λex = 295 nm, US 360 nm bandpass filter) in the stopped-flow spectrofluorimeter.
To prepare TST thiol, ∼ 100 μM thiosulfate was added to TST stocks ( ∼ 20 μM) at room temperature. After 15 min, ∼ 200 μM cyanide was added and left to react for 10 min. The remaining LMW compounds were removed with a PD MidiTrap G-25 column equilibrated with 10 mM Tris buffer, pH 8.5. The TST thiol was diluted in ultrapure water (1.8–2.0 μM) in one of the stopped-flow syringes and reacted with thiosulfate (400 μM) prepared in the other syringe in either acetic/MES/Tris buffer 2× (pH 3.68–8.75) or in ACES/Tris/ethanolamine buffer 2× (pH 6.68–10.34), at 25 °C. The final concentrations were halved as a result of the symmetrical stopped-flow mixing. The decrease in the intrinsic fluorescence caused by persulfide formation was recorded during 0.8 to 200 s depending on the time course, and the final pH was measured.

bovine TST = details: cited from earlier work
[8] = forms as drawn in Table 1 (ammonium form for CysOMeSSH)

TST thiol, sequence (Q16762 whole entry): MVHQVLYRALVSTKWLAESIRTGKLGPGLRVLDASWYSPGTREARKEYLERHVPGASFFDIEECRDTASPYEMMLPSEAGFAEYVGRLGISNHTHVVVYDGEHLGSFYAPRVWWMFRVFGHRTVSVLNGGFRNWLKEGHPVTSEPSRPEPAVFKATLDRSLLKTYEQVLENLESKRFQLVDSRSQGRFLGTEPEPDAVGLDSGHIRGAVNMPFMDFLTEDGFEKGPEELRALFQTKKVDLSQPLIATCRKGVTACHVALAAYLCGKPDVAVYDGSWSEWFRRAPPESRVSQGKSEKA
Human TST, sequence (Q16762 whole entry): as above
T1 sequence (Q9Y6N5 whole entry): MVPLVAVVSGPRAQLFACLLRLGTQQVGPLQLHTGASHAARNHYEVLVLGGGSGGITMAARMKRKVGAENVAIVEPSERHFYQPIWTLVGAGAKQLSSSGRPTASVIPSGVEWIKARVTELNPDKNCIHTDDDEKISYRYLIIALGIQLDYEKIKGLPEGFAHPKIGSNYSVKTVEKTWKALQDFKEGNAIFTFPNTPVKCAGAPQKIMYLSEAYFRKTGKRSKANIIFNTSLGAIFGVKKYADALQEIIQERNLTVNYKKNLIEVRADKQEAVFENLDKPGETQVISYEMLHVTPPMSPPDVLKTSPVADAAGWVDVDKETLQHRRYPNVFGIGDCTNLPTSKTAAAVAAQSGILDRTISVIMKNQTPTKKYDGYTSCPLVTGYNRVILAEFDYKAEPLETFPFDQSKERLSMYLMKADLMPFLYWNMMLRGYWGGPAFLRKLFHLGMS

Molecule: COC1=C(OC)C(=O)C(CC=C(C)C)=C(C)C1=O [CoQ1, coenzyme Q1]
- Km (Human SQOR [1]; pH 7.5, read-out: Km^CoQ1): 19 µM

Molecule: N[C@@H](CSS)C(=O)O [CysSS^−, cysteine persulfide]
- pKa, Persulfide [2, 8]: 5.2 ± 0.1 ^a
- ΔpKa [2]: 3.1
- kind with mBrB, Persulfide [2]: 3.2 ± 0.1 ^a × 10^3 M^−1 s^−1
- pH-independent second-order rate constant, kind, with mBrB ([2]; persulfide, 25 °C): (3.2 ± 0.1) × 10^3 M^−1 s^−1

Molecule: O=S(O)(O)=S [thiosulfate]
- thiosulfate concentration causing inhibition of TST (Human TST; b33: with 312 μM cyanide): 30 mM and > 30 mM
- Km (Human TST; read-out: Km^thiosulfate): 18000 to 45000 µM

Molecule: OCCS [β-Mercaptoethanol]
- pKa, Analog thiol ([3]; analog thiol): 9.6 ^d
- kind with mBrB, Analog thiol [4]: 519 ^d M^−1 s^−1

Molecule: NCCSS [CystSS^−, cysteamine persulfide]
- pKa, Persulfide [2, 8]: 4.87 ± 0.09 ^a
- kind with mBrB, Persulfide [2]: 3.9 ± 0.2 ^a × 10^3 M^−1 s^−1

Molecule: Thiosulfate sulfurtransferase (rhodanese), bovine liver (Bos taurus)
- pKa (Cys248 [5]; free enzyme thiol ('the thiol alone')): 7.8
- pKa (Cys248 [5]; thiol in complex with substrate analogs): 6.75 to 7.05
- pKa (Cys248 [5]; thiol in complex with thiosulfate): 6.5

Molecule: Cl [chloride]
- increase of apparent Km^sulfite (Human SQOR [6]; in the presence of 120 mM chloride versus absence): ~20 fold
- Ki (Human SQOR [6]; sulfite as sulfur acceptor, read-out: Ki (estimated), reversible competitive inhibition versus sulfite): ~7.4 mM

Molecule: COC(=O)[C@@H](N)CSS [CysOMeSS^−, cysteine methyl ester persulfide]
- pKa, Persulfide [2, 8]: 4.6 ± 0.1 ^a
- pKa, Persulfide ([2]; second pKa of two-pKa fit, amino (NH2) form of CysOMeSSH): 6.3 ± 0.6 ^a
- ΔpKa [2]: 2.8
- ΔpKa ([2]; amino (NH2) form of CysOMeSSH): 2.6
- kind with mBrB, Persulfide [2]: 3.8 ± 0.4 ^a × 10^3 M^−1 s^−1
- kind with mBrB, Persulfide ([2]; amino (NH2) form of CysOMeSSH): 5.4 ± 0.8 ^a × 10^3 M^−1 s^−1

Molecule: N[C@@H](CCC(=O)N[C@@H](CSS)C(=O)NCC(=O)O)C(=O)O [GSS^−, glutathione persulfide]
- pKa, Persulfide ([4]; I = 0.15, 25 °C): 5.45 ± 0.03 ^e
- kind with mBrB, Persulfide ([4]; pH-independent rate constant, I = 0.15, 25 °C): 9.0 ± 0.2 ^e × 10^3 M^−1 s^−1
- ΔpKa [2]: 3.49

Molecule: NC(CCS)C(=O)O (stereo not shown) [Homocysteine]
- pKa, Analog thiol ([3]; analog thiol): 9.1 ^d

Molecule: 3-Mercaptopyruvate sulfurtransferase (MPST) (Homo sapiens)
- pKa (Cys): 5.2

Molecule: N[C@@H](CS)C(=O)O [Cysteine]
- pKa, Analog thiol ([3]; analog thiol): 8.29 ^d
- kind with mBrB, Analog thiol [4]: 105 ^d M^−1 s^−1

Molecule: COC(=O)[C@@H](N)CS [Cysteine methyl ester]
- pKa, Analog thiol ([3]; analog thiol, amino (NH2) form): 8.88 ^b
- pKa, Analog thiol ([3]; analog thiol, ammonium form): 7.44 ^b
- pKa of the ammonium group ([3]; listed as CysOMeSH): 6.88
- pKa of the ammonium group ([3]; listed as CysOMeS^−): 8.32

Molecule: N[C@@H](CCC(=O)N[C@@H](CS)C(=O)NCC(=O)O)C(=O)O [Glutathione, glutathione]
- pKa, Analog thiol ([3]; analog thiol): 8.94 ^d
- pKa of the glycyl carboxylic acid ([3]; neutral variant of GSH): 3.36
- pKa of the glycyl carboxylic acid ([3]; positive variant of GSH): 3.12
- kind with mBrB, Analog thiol [4]: 208 ^d M^−1 s^−1
- Km (Human SQOR [1]; pH 7.4, read-out: Km^GSH): 8000 µM

Molecule: Thiosulfate sulfurtransferase (TST, rhodanese), thiol form (Homo sapiens)
- pKa (Cys248 [7]): 6.5 ± 0.1

Molecule: CC(C)c1ccccc1 [Cumene]
- pKa, Analog thiol ([3]; analog thiol of the persulfide, predicted value based on similar thiols): >10 ^h
- pKa, Persulfide [3]: 7.0 ^g
- ΔpKa [2]: >3

Molecule: NC(CCSS)C(=O)O (stereo not shown) [HcySS^−, homocysteine persulfide]
- kind with mBrB, Persulfide [2]: 5.4 ± 0.1 ^a × 10^3 M^−1 s^−1

Molecule: OCCSS [β-MESS^−, β-mercaptoethanol persulfide]
- pKa, Persulfide [2, 8]: 5.8 ± 0.1 ^a
- ΔpKa [2]: 3.8
- kind with mBrB, Persulfide [2]: 7.5 ± 0.4 ^a × 10^3 M^−1 s^−1

Molecule: S [Persulfide H2S, hydrogen sulfide]
- Km (Human SQOR [1]; pH 7.4, H2S as sulfur acceptor, read-out: Km^H2S (Acceptor)): 350 µM
- Km (Human SQOR [1]; pH 7.5, first step of catalysis, read-out: Km^H2S (Donor)): 13 µM

B1: TST thiol (protein, UniProt Q16762 2-297, looked up)
Thiosulfate sulfurtransferase: VHQVLYRALVSTKWLAESIRTGKLGPGLRVLDASWYSPGTREARKEYLERHVPGASFFDIEECRDTASPYEMMLPSEAGFAEYVGRLGISNHTHVVVYDGEHLGSFYAPRVWWMFRVFGHRTVSVLNGGFRNWLKEGHPVTSEPSRPEPAVFKATLDRSLLKTYEQVLENLESKRFQLVDSRSQGRFLGTEPEPDAVGLDSGHIRGAVNMPFMDFLTEDGFEKGPEELRALFQTKKVDLSQPLIATCRKGVTACHVALAAYLCGKPDVAVYDGSWSEWFRRAPPESRVSQGKSEKA
modifications: active-site cysteine thiol
- pH-independent rate constant, Cyanide (TST thiol): No reaction
- pH-independent rate constant, Sulfite (TST thiol): No reaction
- second-order rate constant with thiosulfate (TST thiol): ~30000 M⁻¹ s⁻¹
- pKa of the decrease in kobs at alkaline pH (TST thiol; pH 6.68): ~10

B2: bovine TST: bovine thiosulfate sulfurtransferase (rhodanese), literature values (protein, UniProt P00586 2-297, looked up)
Thiosulfate sulfurtransferase: VHQVLYRALVSTKWLAESVRAGKVGPGLRVLDASWYSPGTREARKEYLERHVPGASFFDIEECRDKASPYEVMLPSEAGFADYVGSLGISNDTHVVVYDGDDLGSFYAPRVWWMFRVFGHRTVSVLNGGFRNWLKEGHPVTSEPSRPEPAIFKATLNRSLLKTYEQVLENLESKRFQLVDSRAQGRYLGTQPEPDAVGLDSGHIRGSVNMPFMNFLTEDGFEKSPEELRAMFEAKKVDLTKPLIATCRKGVTACHIALAAYLCGKPDVAIYDGSWFEWFHRAPPETWVSQGKGGKA
- pKa of the thiol alone (bovine TST; bovine TST): 7.8
- pKa of the thiol in complex with substrate analogs (bovine TST): 6.75 to 7.05
- pKa of the thiol in complex with thiosulfate (bovine TST): 6.5
